# Results taken from ChEMBL document CHEMBL4425117 (Bioorg Med Chem Lett, 2016).
# Columns and labels:
# Endothelin-1 receptor [1] = biological target: T1, Endothelin-1 receptor (Homo sapiens, UniProt P25101); test: Displacement of 125I-ET1 from human smooth muscle ETA receptor expressed in fall armyworm sf9 cell membranes
# T1 sequence (P25101 whole entry): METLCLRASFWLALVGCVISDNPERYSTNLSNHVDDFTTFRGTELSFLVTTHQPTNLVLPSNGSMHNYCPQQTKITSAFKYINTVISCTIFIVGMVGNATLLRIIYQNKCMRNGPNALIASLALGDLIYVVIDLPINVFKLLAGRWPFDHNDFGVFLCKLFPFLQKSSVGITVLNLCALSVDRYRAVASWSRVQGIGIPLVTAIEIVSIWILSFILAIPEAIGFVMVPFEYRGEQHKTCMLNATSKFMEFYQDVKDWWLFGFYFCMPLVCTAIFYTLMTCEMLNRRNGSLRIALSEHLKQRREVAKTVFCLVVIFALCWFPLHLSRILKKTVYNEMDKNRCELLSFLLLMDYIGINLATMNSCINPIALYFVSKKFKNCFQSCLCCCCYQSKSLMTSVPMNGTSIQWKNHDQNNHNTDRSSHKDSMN
# [2] = biological target: T2, Endothelin receptor type B (Rattus norvegicus, UniProt P21451); test: Displacement of 125I-ET1 from rat aortic ring ETB receptor
# T2 sequence (P21451 whole entry): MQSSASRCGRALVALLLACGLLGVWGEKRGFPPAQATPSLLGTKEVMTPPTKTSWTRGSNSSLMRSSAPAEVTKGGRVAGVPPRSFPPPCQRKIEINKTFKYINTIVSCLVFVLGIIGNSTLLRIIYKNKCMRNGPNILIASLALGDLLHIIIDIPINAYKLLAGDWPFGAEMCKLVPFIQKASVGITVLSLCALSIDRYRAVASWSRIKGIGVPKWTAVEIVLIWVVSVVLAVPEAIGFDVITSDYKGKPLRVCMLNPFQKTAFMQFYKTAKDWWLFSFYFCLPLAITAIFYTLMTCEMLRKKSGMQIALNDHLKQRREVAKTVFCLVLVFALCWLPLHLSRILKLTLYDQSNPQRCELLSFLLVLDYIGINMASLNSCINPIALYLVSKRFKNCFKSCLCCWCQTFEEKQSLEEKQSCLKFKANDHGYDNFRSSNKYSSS
# Endothelin-1 receptor [3] = biological target: T1, Endothelin-1 receptor; test: Antagonist activity at human ETA receptor expressed in CHO cells in presence of ET1; format: cell-based
# [4] = biological target: T2, Endothelin receptor type B; test: Displacement of [125I]-ET1 from ETB receptor in rat cerebellum after 3 hrs by scintillation counting method; format: tissue-based
# Endothelin-1 receptor [5] = biological target: T1, Endothelin-1 receptor; test: Displacement of 125I-ET1 from human placenta cell membrane ETA receptor expressed in Baculovirus-infected insect cells
# Endothelin-1 receptor [6] = biological target: T1, Endothelin-1 receptor; test: Antagonist activity at ETA receptor (unknown origin)
# [7] = biological target: T3, Endothelin receptor type B (Homo sapiens, UniProt P24530); test: Antagonist activity at ETB receptor (unknown origin)
# T3 sequence (P24530 whole entry): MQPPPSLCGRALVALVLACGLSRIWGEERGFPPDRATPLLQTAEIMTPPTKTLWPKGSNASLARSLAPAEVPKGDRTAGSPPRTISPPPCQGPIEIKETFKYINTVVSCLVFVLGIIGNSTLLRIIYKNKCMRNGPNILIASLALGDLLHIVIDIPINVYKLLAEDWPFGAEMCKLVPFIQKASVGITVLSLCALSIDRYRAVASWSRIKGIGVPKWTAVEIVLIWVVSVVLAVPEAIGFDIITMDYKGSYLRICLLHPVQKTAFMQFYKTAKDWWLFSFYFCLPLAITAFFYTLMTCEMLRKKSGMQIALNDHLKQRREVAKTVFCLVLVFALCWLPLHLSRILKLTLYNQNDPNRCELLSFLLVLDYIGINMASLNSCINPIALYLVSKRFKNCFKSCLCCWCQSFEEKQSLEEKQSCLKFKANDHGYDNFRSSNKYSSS
# Endothelin-1 receptor [8] = biological target: T1, Endothelin-1 receptor; test: Displacement of 125I-ET1 from ETA receptor (unknown origin) expressed in CHO cells; format: cell-based
# [9] = biological target: T3, Endothelin receptor type B; test: Antagonist activity at ETB receptor (unknown origin) in presence of ET1
# Endothelin-1 receptor [10] = biological target: T1, Endothelin-1 receptor; test: Antagonist activity at ETA receptor (unknown origin) in presence of ET1
# [11] = biological target: T3, Endothelin receptor type B; test: Displacement of radioligand from ETB receptor in human placenta cell membranes
# [12] = Oral bioavailability in dog; format: ADME, organism-based, Canis lupus familiaris; settings: in vivo
# Endothelin-1 receptor [13] = biological target: T1, Endothelin-1 receptor; test: Displacement of [125I]-ET-1 from human ETA receptor expressed in CHO cell membranes after 2 hrs by scintillation counting
# [14] = Oral bioavailability in rat at 15 mg/kg; format: ADME, organism-based; settings: in vivo
# [15] = Oral bioavailability in dog at 15 mg/kg; format: ADME, organism-based, Canis lupus familiaris; settings: in vivo
# Description for physchem: Dissociation constant, pKa of the compound
smiles,measurement,setting,value
COc1cccc(Oc2c(NS(=O)(=O)c3ccc(C(C)(C)C)cc3)ncnc2OCCO)c1,IC50,Endothelin-1 receptor [1],220 nM
same,IC50,[2],1000 nM
CCCNS(=O)(=O)Nc1ncnc(OCCOc2ncc(Br)cn2)c1-c1ccc(Br)cc1,IC50,Endothelin-1 receptor [3],3.4 nM
same,pKa,physchem,6.2
Cc1noc(NS(=O)(=O)c2ccccc2-c2ccc(-c3ncco3)cc2)c1C,Ki,[4],1900 nM
COc1ccccc1Oc1c(NS(=O)(=O)c2ccc(C(C)C)cc2)nc(C(F)(F)F)nc1OCCO,IC50,Endothelin-1 receptor [5],50 nM
same,IC50,Endothelin-1 receptor [6],26 nM
same,IC50,[7],914 nM
COc1ccccc1Oc1c(NS(=O)(=O)c2ccc(C)cn2)nc(-c2ccncc2)nc1OC [AVOSENTAN],IC50,Endothelin-1 receptor [8],1.4 nM
same,IC50,[9],1200 nM
same,IC50,Endothelin-1 receptor [10],3.1 nM
same,IC50,[11],600 nM
CCc1cc(C2=C(C(=O)O)N(c3ccccc3C(F)(F)F)S(=O)(=O)c3ccccc32)cc2c1OCO2 [FANDOSENTAN],bioavailability,[12],100%
same,IC50,Endothelin-1 receptor [13],0.5 nM
Cc1cc2c(cc1CC(=O)c1sccc1S(=O)(=O)Nc1onc(C)c1Cl)OCO2 [SITAXENTAN],bioavailability,[14],60 to 100%
same,bioavailability,[15],60 to 100%
